Test results as given in patent US20250035634A1, “A METHOD FOR DETECTING CLUSTERING OF RAS PROTEIN” (Nanyang Technological University, priority 2021, published 2025).

Assays:
HCT-116 cells = details: 24 hrs, read-out: IC50, MTT assay growth inhibition; cited from earlier work
K-Ras = molecular target: T1, K-Ras (Homo sapiens, UniProt P01116); details: Hela cells, 4 hrs; read-out: IC50, NanoBit assay measuring K-Ras activation; cited from earlier work
T1 construct: host or cells: HeLa

HRasG12V = molecular target: T2, HRasG12V (Homo sapiens, UniProt P01112, G12V); assay: nanobar-guided HRasG12V clustering (Enrichment Index) in U2OS cells; format: cell-based
T2 construct: through full-length KRasG12V, HRasG12V and the truncated Ras isoforms tK-Ras and tH-Ras; expressed in transfected cells; host or cells: U2OS
From the text: Arrays of nanostructures on SiO2 surface of bar shape are fabricated with two curved ends and flat sidewalls using electron beam lithography (EBL). […] To conduct EBL, the chips are spin-coated with an electron-sensitive layer, 300 nm of positive electron-beam resist poly (methyl methacrylate) (PMMA) (MicroChem), followed by a conductive polymer layer of AR-PC 5090.02 (Allresist). Desired patterns are then written on the polymer through exposure to EBL (FEI Helios NanoLab), and developed in isopropanol:methylisobutylketone (IPA:MIBK)=3:1 solution. Subsequently, a 30-nm chromium (Cr) mask is deposited onto the surface via thermal evaporation (UNIVEX 250 Benchtop) and lift-off in acetone. […]
Cell imaging is performed with laser scanning confocal microscopy (Zeiss LSM 800 with Airyscan) and a Plan-Apochromat 100×/1.4 oil objective. EGFP is excited at 488 nm and detected at 490-570 nm. RFP is excited at 561 nm and detected at 570-645 nm. […] The images are conducted with a single snap shot for display of Ras variants and the quantification. […]
To quantify the nanobar-guided clustering of Ras variants, the fluorescence intensity ratio at the nanobar end to the flat sidewall (i.e. Enrichment Index, EI) is calculated. […] Next, the nanobars covered by the cell to be analyzed are identified by a custom-written MATLAB (MathWorks) code. […]

ASPC-1 cells = details: 24 hrs, read-out: IC50, MTT assay growth inhibition; cited from earlier work
Calu-1 cells = details: 24 hrs, read-out: IC50, MTT assay growth inhibition; cited from earlier work
KRasG12V = molecular target: T3, KRasG12V (Homo sapiens, UniProt P01116, G12V); assay: nanobar-guided KRasG12V clustering (Enrichment Index) in U2OS cells; format: cell-based; details: for Enrichment Index (EI) of KRasG12V: mean±s.e.m.
T3 construct: through full-length KRasG12V, HRasG12V and the truncated Ras isoforms tK-Ras and tH-Ras; expressed in transfected cells; host or cells: U2OS
From the text: Arrays of nanostructures on SiO2 surface of bar shape are fabricated with two curved ends and flat sidewalls using electron beam lithography (EBL). […] To conduct EBL, the chips are spin-coated with an electron-sensitive layer, 300 nm of positive electron-beam resist poly (methyl methacrylate) (PMMA) (MicroChem), followed by a conductive polymer layer of AR-PC 5090.02 (Allresist). Desired patterns are then written on the polymer through exposure to EBL (FEI Helios NanoLab), and developed in isopropanol:methylisobutylketone (IPA:MIBK)=3:1 solution. Subsequently, a 30-nm chromium (Cr) mask is deposited onto the surface via thermal evaporation (UNIVEX 250 Benchtop) and lift-off in acetone. Nanostructures are generated through reactive ion etching with the mixture of CF4 and CHF3 (Oxford Plasmalab 80). After fabrication, scanning electron microscopy (SEM) (FEI Helios NanoLab) imaging can be performed after 10-nm Cr coating to measure the dimensional properties of nanostructures (FIG. 1, top). Before use, the nanostructured-chip is cleaned by Chromium Etchant (Sigma-Aldrich) to remove the remaining metal layer.
To culture the cells onto the nanostructured chip, the chip is first cleaned by air plasma treatment (Harrick Plasma) and sterilized by UV radiation. Additional coating reagents like extracellular matrix (ECM) protein components (e.g., fibronectin or gelatin, Sigma-Aldrich) can be added to promote cell attachment. After coating, the cells are plated and maintained in DMEM (Gibco) supplemented with fetal bovine serum (FBS, Life Technologies) and Penicillin-Streptomycin (Life Technologies) in a standard incubator at 37° C. with 5% CO2.
The Ras proteins can be expressed transiently by transfecting the fluorescent protein-tagged Ras plasmid (e.g., EGFP-KRasG12V, EGFP, enhanced green fluorescent protein) into cells using the Lipofectamine (Life Technologies) protocol or electroporation (e.g., Neon Transfection System, Thermo Fisher). If necessary, the transfection parameters (e.g., the amount of the plasmid, starvation time and expression time) and electroporation parameters (e.g., pulse voltage, pulse width, pulse number) can be optimized to reach the expected transfection efficiency and expression level. FBS can be removed at the expression step from the culture medium to prevent Ras activation.
To evaluate the effect of a Ras inhibitor on disrupting the Ras clusters, a gradient concentration and several treatment durations can be selected to determine the effective window. A control group with no treatment should be conducted at the same time. Before and after treatment of the same batch of cells can also be compared.
Cell imaging is performed with laser scanning confocal microscopy (Zeiss LSM 800 with Airyscan) and a Plan-Apochromat 100×/1.4 oil objective. EGFP is excited at 488 nm and detected at 490-570 nm. RFP is excited at 561 nm and detected at 570-645 nm. Images were taken with a resolution of 512×512 pixels, 16-bit and 124 nm pixel size. A scanning speed of 20 s/image and an averaging mode of 4 times/line can be applied. During imaging, the cells are maintained in live cell imaging solution (Thermo Fisher) at 37° C. in an on-stage incubator. […] The images are conducted with a single snap shot for display of Ras variants and the quantification. For the imaging of co-expressed K-Ras variants and CRaf-RBD, z-stack images can be taken and averaged for display and the intensity profiles. The calculation of Pearson correlation coefficient is also based on single snap shot.
To quantify the nanobar-guided clustering of Ras variants, the fluorescence intensity ratio at the nanobar end to the flat sidewall (i.e. Enrichment Index, EI) is calculated. The background signals of each image are firstly subtracted by the rolling ball algorithm in ImageJ (radius=3 pixels for 250 nm diameter nanobars). Next, the nanobars covered by the cell to be analyzed are identified by a custom-written MATLAB (MathWorks) code. […]

COc1ccc([C@@]23Oc4cc(OC)cc(OC)c4[C@]2(O)[C@H](O)[C@H](C(=O)N(C)C)[C@H]3c2ccccc2)cc1 [rocaglamide]
IC50 (HCT-116 cells): 9.47 nM
IC50 (K-Ras): 24.8 nM
Enrichment Index (EI) of HRasG12V (HRasG12V; rocaglamide 100 nM, 4 hrs, U2OS cells, mean±s.e.m.): 1.87±0.029
effect on bar-end accumulated clustering of HRasG12V (HRasG12V; same drug treatment vs DMSO, U2OS cells on nanobars): no obvious changes
IC50 (ASPC-1 cells): 10.2 nM
IC50 (Calu-1 cells): 11.9 nM
detection limit: concentration at which effect on KRasG12V clustering is detected (KRasG12V; 1 hr treatment): 25 nM
IC50 (KRasG12V; KRasG12V, 1 hr, one-phase decay fit of EI, read-out: IC50 of the nanobar assay, effect on K-Ras clustering): 18.4 nM
effect on bar-end accumulated clustering of KRasG12V (KRasG12V; drug treatment vs DMSO, U2OS cells on nanobars): significant reduction
Enrichment Index (EI) of KRasG12V (KRasG12V; rocaglamide 25 nM, 1 hr): 1.64±0.018
detection time: treatment time giving significant reduction of KRasG12V clustering (KRasG12V; rocaglamide 50 nM): 15 min
Enrichment Index (EI) of KRasG12V (KRasG12V; rocaglamide 50 nM, 15 mins): 1.72±0.032
Enrichment Index (EI) of KRasG12V (KRasG12V; rocaglamide 50 nM, 1 hr): 1.55±0.021
Enrichment Index (EI) of KRasG12V (KRasG12V; rocaglamide 50 nM, 4 hrs): 1.64±0.024
Enrichment Index (EI) of KRasG12V (KRasG12V; rocaglamide 100 nM, 1 hr, U2OS cells): 1.58±0.027
